Results as given in paper PMC5575254, “An allosteric ligand-binding site in the extracellular cap of K2P channels” (Nature Communications, 2017).
Numbering of substitutions follows the chain as printed.

What was measured:
mutant TREK-1 channels [1] = target: T1, mutant TREK-1 channels (Homo sapiens, UniProt O95069, Q98A); assay: Whole-cell voltage clamp of mutant TREK-1 channels; type: cell-based; conditions: Q83A mutant
T1 construct: expressed in transfected cells; host or cells: CHO cells, transient transfection
T1 sequence (O95069 1-411 isoform O95069-2 Q83A): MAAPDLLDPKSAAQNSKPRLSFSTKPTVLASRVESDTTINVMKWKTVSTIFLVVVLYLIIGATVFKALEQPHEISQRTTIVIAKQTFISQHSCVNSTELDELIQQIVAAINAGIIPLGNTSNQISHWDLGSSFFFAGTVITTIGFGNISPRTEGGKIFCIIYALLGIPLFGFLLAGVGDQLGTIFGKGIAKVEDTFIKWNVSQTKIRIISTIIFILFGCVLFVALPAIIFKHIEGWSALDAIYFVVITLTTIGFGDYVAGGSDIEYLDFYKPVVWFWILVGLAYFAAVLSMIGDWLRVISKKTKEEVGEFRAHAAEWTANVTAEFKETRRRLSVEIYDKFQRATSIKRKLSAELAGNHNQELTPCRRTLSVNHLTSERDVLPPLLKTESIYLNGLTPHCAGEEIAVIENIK
Description: (§1) cDNA of the human TREK-1, TREK-2 and TRAAK channels were subcloned into the pEGFPN1 expression vector (Invitrogen), respectively. Mutations were introduced into TREK-1 or TRAAK by PCR using the QuickChange XL sitedirected mutagenesis kit (Agilent Technologies) and were subsequently confirmed by DNA sequencing.
(§2) Chinese hamster ovary (CHO) cells were provided by the Cell Bank of Chinese Academy of Sciences (Shanghai, China). CHO cells were maintained in DMEM/F12 (Gibco) supplemented with 10% fetal bovine serum (Gibco) and 100 μg ml^−1 penicillin-streptomycin (Cellgro) in a humidified incubator at 37 °C (5% CO2). For electrophysiology experiments, cells plated in 35 mm tissue culture dishes (Corning Incorporated) were transiently transfected with the plasmids using PolyJet™ reagent (SignaGen) according to the manufacturer’s instructions. Primers used in this study are listed in Supplementary Table 4.
(§3) All electrophysiological recordings were obtained using patch-clamp recordings in two different configurations: (1) whole cell for macroscopic current dose–response curves; and (2) outside-out and inside-out for macroscopic currents recordings.
(§4) All patch-clamp recordings were conducted 36–96 h after transfection with an Axopatch-200B amplifier (Molecular Devices) at room temperature (23–25 °C). The microelectrodes fashioned from 1.5 mm thin-walled borosilicate glass with filament were pulled from Flaming/Brown type micropipette puller (P-97; SUTTER INSTRUMENT) with the resistances of 3–7 MΩ (whole cell) or 7–15 MΩ (outside-out) when filled with a solution containing (in mM): 140 KCl, 2 MgCl2, 10 EGTA, 1 CaCl2, 10 HEPES (pH 7.3, adjusted with KOH). External solution contained (in mM): 150 NaCl, 5 KCl, 0.5 CaCl2, 1.2 MgCl2, 10 HEPES (pH 7.3, adjusted with NaOH). The current signals were filtered at 1 kHz and digitized at a 10 kHz sampling frequency by using DigiData 1440 A.
(§5) Data of whole-cell voltage clamp experiments were fitted using doseResp function. […]

mutant TREK-1 channels [2] = target: T2, mutant TREK-1 channels (Homo sapiens, UniProt O95069, T94A); assay: Whole-cell voltage clamp of mutant TREK-1 channels; type: cell-based; conditions: T79A mutant
T2 construct: expressed in transfected cells; host or cells: CHO cells, transient transfection
T2 sequence (O95069 1-411 isoform O95069-2 T79A): T1 sequence (O95069 1-411 isoform O95069-2 Q83A) with T79A, A83Q
Description: as §1, §2, §3, §4, §5

mice = assay: Acute administration behavioral tests; type: in vivo, Male C57BL/6 mice; conditions: single i.p. injection, tests 30 min after administration
Procedure: Male C57BL/6 mice, aged 8 weeks (weighing 18–20 g) were used for acute and chronic drug administration and behavioral tests. The mice were housed four per cage under a 12-h light–dark cycle. Mice were raised under stable conditions with food and water ad libitum. All animal studies and experimental procedures were approved by the Animal Care Committees of the Shanghai Institute of Materia Medica, Chinese Academy of Sciences, and experiments were carried out in accordance with EU Directive 2010/63/EU on the protection of animals used for scientific purposes. […] The mice were removed to a sound-attenuating testing room 3–4 h before testing. […]
The apparatus was made of opaque Plexiglas (50 cm × 50 cm) and placed in a room with sound proof. […] The mice were randomly placed into the center of the sheet following 30 min drugs administration and their behaviors in the open field arena were recorded for 10 min using the camera. […] Locomotor activity and exploratory behavior were measured in the open field test and each animal was placed individually at the center for a 10 min session. The total distance moved and the number of rearing was measured in this experiment. […]
The mice were performed under normal light. […] The duration of immobility defined as floating or remaining motionless was assessed. […]

IC50 (mutant TREK-1 channels [1]): 2.4 ± 0.6 µM
IC50 (mutant TREK-1 channels [2]): 2.4 ± 0.4 µM
SMILES: CS(=O)(=O)N(CC(=O)N1CCc2ccccc2C1)c1ccc(Cl)cc1 [TKDC, N-(4-cholorphenyl)-N-(2-(3,4-dihydrosioquinolin-2(1H)-yl)-2-oxoethyl)methanesulfonamide]
antidepressant-like effect in the acute treatment (mice): fast antidepressant-like effect
